Results taken from the supplement of paper PMC10307832.

How the values were obtained:
Test in all cases: relative viability (nuclei count vs DMSO), 5 days (fraction); higher = more cells survive
[1] = test system: A-427
Method in brief: (§1)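 Relative viability equals treated-well nuclei counts divided by vehicle-well nuclei counts. Counts came from 4× images of lung cancer cell lines grown in 1536-well plates for 5 days after pin-tool dosing on the day after seeding. Dosing used one drug alone or a fixed anchor-drug dose plus five library-drug doses (not always all listed) in √10 steps, and values are medians of duplicate plates.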

[2] = test system: EKVX
Method in brief: as §1

[3] = test system: H3255
Method in brief: as §1

[4] = test system: LK-2
Method in brief: as §1

[5] = test system: NCI-H1355
Method in brief: as §1

[6] = test system: NCI-H1650
Method in brief: as §1

[7] = test system: NCI-H1666
Method in brief: as §1

[8] = test system: NCI-H1755
Method in brief: as §1

[9] = test system: NCI-H1944
Method in brief: as §1

[10] = test system: NCI-H2085
Method in brief: as §1

[11] = test system: NCI-H2228
Method in brief: as §1

[12] = test system: NCI-H2347
Method in brief: as §1

[13] = test system: NCI-H3122
Method in brief: as §1

[14] = test system: NCI-H322M
Method in brief: as §1

[15] = test system: NCI-H358
Method in brief: as §1

[16] = test system: NCI-H460
Method in brief: as §1

[17] = test system: NCI-H520
Method in brief: as §1

[18] = test system: NCI-H596
Method in brief: as §1

[19] = test system: NCI-H650
Method in brief: as §1

[20] = test system: NCI-H838
Method in brief: as §1

[21] = test system: SW 1573
Method in brief: as §1

O=C(O)CCCCC(CCSCc1ccccc1)SCc1ccccc1 (stereo not given) [CPI-613] + CS(=O)(=O)CCNCc1ccc(-c2ccc3ncnc(Nc4ccc(OCc5cccc(F)c5)c(Cl)c4)c3c2)o1 [Lapatinib] (partner 2 µM)
relative viability ([1]; first compound 5 µM): 0.974 | relative viability ([1]; first compound 15.81 µM): 0.94 | relative viability ([1]; first compound 50 µM): 1.07 | relative viability ([1]; first compound 158.11 µM): 0.996 | relative viability ([1]; first compound 500 µM): 0.948 | relative viability ([2]; first compound 5 µM): 0.186 | relative viability ([2]; first compound 15.81 µM): 0.208 | relative viability ([2]; first compound 50 µM): 0.218 | relative viability ([2]; first compound 158.11 µM): 0.193 | relative viability ([2]; first compound 500 µM): 0.206 | relative viability ([3]; first compound 5 µM): 0.234 | relative viability ([3]; first compound 15.81 µM): 0.253 | relative viability ([3]; first compound 50 µM): 0.291 | relative viability ([3]; first compound 158.11 µM): 0.256 | relative viability ([3]; first compound 500 µM): 0.25 | relative viability ([4]; first compound 5 µM): 0.967 | relative viability ([4]; first compound 15.81 µM): 0.864 | relative viability ([4]; first compound 50 µM): 0.876 | relative viability ([4]; first compound 158.11 µM): 0.905 | relative viability ([4]; first compound 500 µM): 0.853 | relative viability ([5]; first compound 5 µM): 1.02 | relative viability ([5]; first compound 15.81 µM): 0.872 | relative viability ([5]; first compound 50 µM): 0.979 | relative viability ([5]; first compound 158.11 µM): 0.642 | relative viability ([5]; first compound 500 µM): 0.589 | relative viability ([6]; first compound 5 µM): 0.584 | relative viability ([6]; first compound 15.81 µM): 0.662 | relative viability ([6]; first compound 50 µM): 0.719 | relative viability ([6]; first compound 158.11 µM): 0.082 | relative viability ([6]; first compound 500 µM): 0.023 | relative viability ([7]; first compound 5 µM): 0.629 | relative viability ([7]; first compound 15.81 µM): 0.555 | relative viability ([7]; first compound 50 µM): 0.656 | relative viability ([7]; first compound 158.11 µM): 0.162 | relative viability ([7]; first compound 500 µM): 0.109 | relative viability ([8]; first compound 5 µM): 0.997 | relative viability ([8]; first compound 15.81 µM): 0.996 | relative viability ([8]; first compound 50 µM): 1 | relative viability ([8]; first compound 158.11 µM): 0.969 | relative viability ([8]; first compound 500 µM): 0.232 | relative viability ([9]; first compound 5 µM): 0.818 | relative viability ([9]; first compound 15.81 µM): 0.725 | relative viability ([9]; first compound 50 µM): 0.753 | relative viability ([9]; first compound 158.11 µM): 0.77 | relative viability ([9]; first compound 500 µM): 0.632 | relative viability ([10]; first compound 5 µM): 0.813 | relative viability ([10]; first compound 15.81 µM): 0.728 | relative viability ([10]; first compound 50 µM): 0.709 | relative viability ([10]; first compound 158.11 µM): 0.674 | relative viability ([10]; first compound 500 µM): 0.516 | relative viability ([11]; first compound 5 µM): 0.817 | relative viability ([11]; first compound 15.81 µM): 0.979 | relative viability ([11]; first compound 50 µM): 0.832 | relative viability ([11]; first compound 158.11 µM): 0.406 | relative viability ([11]; first compound 500 µM): 0.0151 | relative viability ([12]; first compound 5 µM): 0.986 | relative viability ([12]; first compound 15.81 µM): 0.846 | relative viability ([12]; first compound 50 µM): 0.762 | relative viability ([12]; first compound 158.11 µM): 0.563 | relative viability ([12]; first compound 500 µM): 0.766 | relative viability ([13]; first compound 5 µM): 1.02 | relative viability ([13]; first compound 15.81 µM): 0.971 | relative viability ([13]; first compound 50 µM): 0.994 | relative viability ([13]; first compound 158.11 µM): 0.856 | relative viability ([13]; first compound 500 µM): 0.0332 | relative viability ([14]; first compound 5 µM): 0.577 | relative viability ([14]; first compound 15.81 µM): 0.485 | relative viability ([14]; first compound 50 µM): 0.572 | relative viability ([14]; first compound 158.11 µM): 0.552 | relative viability ([14]; first compound 500 µM): 0.707 | relative viability ([15]; first compound 5 µM): 0.416 | relative viability ([15]; first compound 15.81 µM): 0.436 | relative viability ([15]; first compound 50 µM): 0.409 | relative viability ([15]; first compound 158.11 µM): 0.296 | relative viability ([15]; first compound 500 µM): 0.0347 | relative viability ([16]; first compound 5 µM): 0.87 | relative viability ([16]; first compound 15.81 µM): 0.853 | relative viability ([16]; first compound 50 µM): 0.838 | relative viability ([16]; first compound 158.11 µM): 0.243 | relative viability ([16]; first compound 500 µM): 0.0072 | relative viability ([17]; first compound 5 µM): 0.887 | relative viability ([17]; first compound 15.81 µM): 0.634 | relative viability ([17]; first compound 50 µM): 0.912 | relative viability ([17]; first compound 158.11 µM): 0.264 | relative viability ([17]; first compound 500 µM): 0.103 | relative viability ([18]; first compound 5 µM): 1.01 | relative viability ([18]; first compound 15.81 µM): 1.05 | relative viability ([18]; first compound 50 µM): 1.02 | relative viability ([18]; first compound 158.11 µM): 1.05 | relative viability ([18]; first compound 500 µM): 0.0407 | relative viability ([19]; first compound 5 µM): 1.05 | relative viability ([19]; first compound 15.81 µM): 0.913 | relative viability ([19]; first compound 50 µM): 1.11 | relative viability ([19]; first compound 158.11 µM): 0.84 | relative viability ([19]; first compound 500 µM): 0.724 | relative viability ([20]; first compound 5 µM): 0.862 | relative viability ([20]; first compound 15.81 µM): 0.783 | relative viability ([20]; first compound 50 µM): 0.846 | relative viability ([20]; first compound 158.11 µM): 0.601 | relative viability ([20]; first compound 500 µM): 0.0634 | relative viability ([21]; first compound 5 µM): 1.24 | relative viability ([21]; first compound 15.81 µM): 1.06 | relative viability ([21]; first compound 50 µM): 1.13 | relative viability ([21]; first compound 158.11 µM): 1.06 | relative viability ([21]; first compound 500 µM): 1
